In EP0492113A2, “Herbicide resistant AHAS deletion mutants” (priority 1990, dated 1992):

What was measured:
[1] = system: Wisconsin 38[W38] wild-type herbicide sensitive tobacco cultivar; test: Postemergence spray of tobacco, susceptible control; format: in vivo; conditions: for plant growth: 25 days after spraying, Figure 2(a); for Tobacco Mean FW: (5 reps each): Control, four and one-half weeks
Source text: All three photographs were taken 25 days after spraying. In all photographs, control plants (a wild-type herbicide sensitive tobacco cultivar, Wisconsin 38[W38]) are in the front row. • (a) W38 Control and 10-1 Self - W38 represents the control and 10-1 the selfed transgenic tobacco progeny. At 0 g/ha Pursuit®, both the W38 and the 10-1 look similar. […] 0 x 10-1 represents W38 as the maternal parent (0) and 10-1 as the paternal parent. The results are very similar to that seen in the 10-1 selfed photograph. • (c) W38 Control and 10-1 x 0 - W38 as previously described. 10-1 x 0 represents 10-1 as the maternal parent and W38 as the paternal parent (0). The results are very similar to that seen in the 10-1 selfed photograph except that in this photo segregation of the herbicide resistance trait can be seen in the 10-1 progeny.
In a more quantitative assay, seed of selfed progeny of the transgenic tobacco plant (10-1) containing the Trp574 deletion mutation of Arabidopsis AHAS as well as seeds of the susceptible parental cultivar "Wisconsin 38" are planted in Metro Mix 350™ in 5" Azalea pots. The seedlings are thinned to the single most vigorous seedling after 2 days. Eleven days later, these plants are sprayed postemergence with Pursuit® at 0, 10, 20, 40, 80 and 160 g/ha. Five plants of each tobacco type (transgenic and control) are sprayed per herbicide rate. Tween 20™ is added at 0.25 v/v to the herbicide solutions prior to spraying. The herbicide is applied with a laboratory belt sprayer at a rate of 400 L/ha at a distance 18" above the plants with a belt speed of 8.2 sec/rev and sprayer nozzle #65015E. Plant heights are measured 1, 2, 3, and 4 weeks after treatment, plant fresh weight data is collected at four and one-half weeks.

W38 (wild-type) = test: Tobacco seed assay on herbicide medium, W38; format: in vivo; conditions: after three weeks
Experimental: Seeds resulting from transgenic plant 10-1 are also assayed for resistance to the imidazolinone Pursuit®. Seeds are plated onto medium containing Pursuit® at 0, 1.25, 2.5, 3.75, and 5.0 µM. Twenty seeds are plated per petri dish, with two dishes per treatment. Herbicide tolerance of seedlings is evaluated after three weeks. […]

[2] = biological target: T1, AHAS produced by substitution of asparagine for serine at position 653 (pAC229) (Arabidopsis thaliana, UniProt P17597, S653N); format: biochemical; conditions: Ser653 to asparagine substitution; Figure 6
T1 construct: made in house; host or cells: E. coli MF2000
T1 sequence (P17597 56-670 S653N): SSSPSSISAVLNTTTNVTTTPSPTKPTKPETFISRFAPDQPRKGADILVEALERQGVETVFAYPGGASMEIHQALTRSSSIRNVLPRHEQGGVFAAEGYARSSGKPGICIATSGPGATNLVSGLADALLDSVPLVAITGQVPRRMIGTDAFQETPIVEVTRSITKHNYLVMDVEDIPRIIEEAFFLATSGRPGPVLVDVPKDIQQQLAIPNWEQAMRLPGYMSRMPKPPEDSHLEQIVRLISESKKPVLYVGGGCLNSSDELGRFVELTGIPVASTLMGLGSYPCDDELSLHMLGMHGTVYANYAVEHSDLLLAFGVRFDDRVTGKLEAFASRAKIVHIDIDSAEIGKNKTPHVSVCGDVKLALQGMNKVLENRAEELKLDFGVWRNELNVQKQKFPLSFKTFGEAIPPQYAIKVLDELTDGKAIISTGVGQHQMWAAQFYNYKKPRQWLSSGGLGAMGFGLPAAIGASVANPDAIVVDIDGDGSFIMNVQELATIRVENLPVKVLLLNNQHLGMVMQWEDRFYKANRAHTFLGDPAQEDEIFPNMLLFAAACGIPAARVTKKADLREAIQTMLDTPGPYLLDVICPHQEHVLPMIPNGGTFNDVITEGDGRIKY

[3] = 5 µM in medium, twenty seeds per dish

## CCc1cnc(C2=NC(C)(C(C)C)C(=O)N2)c(C(=O)O)c1 (stereo not shown) [Pursuit®]
[1]; 10 g/ha post-emergence, compared to 10-1
  plant growth: slightly inhibited
[1]; 10 g/ha postemergence
  Tobacco Mean FW: (5 reps each): 8.1 g
[1]; 20 g/ha postemergence
  Tobacco Mean FW: (5 reps each): 2.0 g
[1]; 40 g/ha postemergence
  Tobacco Mean FW: (5 reps each): 0.8 g
[1]; 80 g/ha postemergence
  Tobacco Mean FW: (5 reps each): 0.6 g
[1]; 160 g/ha postemergence
  Tobacco Mean FW: (5 reps each): 0.2 g
[1]; any of the rates tested (10 to 160 g/ha)
  herbicide tolerance, applied postemergence: does not display herbicide tolerance
[1]; starting at 20 g/ha post-emergence
  plant growth: almost completely inhibited
W38 (wild-type); [3]
  D (Damaged), number of seedlings per dish: 0
  R (Resistant), number of seedlings per dish: 0
  S (Susceptible), number of seedlings per dish: 20
W38 (wild-type); control plants, lowest concentration, 1.25 µM in medium
  herbicide tolerance of seedlings: exhibited herbicide sensitivity
[2]
  sensitivity of AHAS enzyme to herbicide: insensitive to inhibition
